Legend:
[1] = tested on: GSH in A375 xenograft tumor samples; assay: GSH concentrations in tumor samples from treated mice; assay type: in vivo, mice (Athymic nu/nu); settings: mice treated with BSO, 15 mM in drinking water
Description: (§1) 2-Mercaptoethanol is a reducing agent that leads to reduction of disulphide bonds to produce thiols. […] The effect of eliminating GSH in vivo was tested by treating mice (Athymic nu/nu) bearing A375 xenografts with rodent diet (AIN-76A) containing PLX4720 ([…], 416 mg/kg of diet) alone and in combination with BSO (15 mM in drinking water). […] Tumor xenografts in mice treated with the AIN-76 diet mixed with PLX4720 were responsive initially, but approximately 80% of these tumors acquired resistance to BRAFi treatment alone within 140 days (i.e., 20% complete responses; FIG. 2). On the contrary, the combination of BSO with PLX4720 produced nearly 90% complete and durable tumor responses (FIG. 4). […] Tumor progression was defined as a 50% increase (approximately a two standard deviation increase) in tumor volume from study initiation.
Female athymic nu/nu mice (age six weeks) were purchased from Envigo (previously Harlan Laboratories) and housed in the Animal Care Facility at The University of Iowa (Iowa City, Iowa). All procedures were approved by The University of Iowa Institutional Animal Care and Use Committee. All mice were naïve to treatments at the time of xenograft. For each xenograft, 1-3×10^6 cells (451LuBR and A375) were implanted subcutaneously in a 1:1 suspension of Matrigel (Corning) and PBS (flank) using a 27-gauge needle. […]

[2] = tested on: A375 xenografts; assay: A375 xenografts in athymic nu/nu mice: tumor growth, response, survival, body weight; assay type: in vivo
Description: as §1
Female athymic nu/nu mice (age six weeks) were purchased from Envigo (previously Harlan Laboratories) and housed in the Animal Care Facility at The University of Iowa (Iowa City, Iowa). All procedures were approved by The University of Iowa Institutional Animal Care and Use Committee. All mice were naïve to treatments at the time of xenograft. For each xenograft, 1-3×10^6 cells (451LuBR and A375) were implanted subcutaneously in a 1:1 suspension of Matrigel (Corning) and PBS (flank) using a 27-gauge needle. For all in vivo studies, the mice were randomly assigned to experimental groups post-implant. Animals developed tumors within 7-10 days post-implant. Initiation of treatments was standardized to the time that tumor volume ([(longest length)×(smallest length^2)]/2) reached 80-100 mm^3.
The dose and mode of delivery for PBA was determined by analyzing the pharmacokinetics C-14 labeled PBA in mice (FIG. 5). These drugs were administered alone and in combination depending on the experimental group. The mice were monitored for their state of health every day. Tumor volume and animal weights were measured twice per week. Mice were euthanized when the observed state of health reached the endpoint according to the approved IACUC protocol or when the tumor volume reached 1500 mm^3.
Statistics was conducted using the tumor sizes (mm^3) that were obtained periodically throughout the experiments, resulting in repeated measurements for each mouse. Linear mixed effects regression models were used to estimate and compare treatment group-specific tumor growth curves. Pairwise comparisons were performed to identify treatment group differences in the growth curves. The Kaplan-Meier method was used to estimate the survival curves, and group comparisons were made using the log rank test. Mice who developed ulcerations were censored at day of euthanasia. […]

Structure (SMILES)	GSH concentrations in tumor samples vs controls [1]	tumor growth rate versus untreated controls ([2]; BSO alone, 15 mM in drinking water, A375 xenografts)	complete (and durable) tumor responses ([2]; A375 xenografts, PLX4720 416 mg/kg of diet, alone or with BSO 15 mM in drinking water)	time within which tumor xenografts acquire resistance ([2]; BRAFi treatment alone)	tumors that acquired resistance to BRAFi treatment alone ([2]; within 140 days, PLX4720 416 mg/kg of AIN-76A diet)
CCCCS(=N)(=O)CCC(N)C(=O)O (centres unmarked) [BSO, buthionine sulfoximine]	significantly lower	No significant difference			
CCCS(=O)(=O)Nc1ccc(F)c(C(=O)c2c[nH]c3ncc(Cl)cc23)c1F [PLX4720]			20%	≤ 140 days	approximately 80%
